Test results: patent US20060019312A1, “CIS-interactions between MHC molecules and co-expressed proteins, related neurological and non-neurological disorders and related therapeutic/diagnostic utilities” (priority 2004, published 2006)

Test system: GluR1 / MHC class I (b2m)
Experiment: Co-immunoprecipitation of GluR1 with anti-b2m antibodies from brain slices, Western blot with anti-GluR1
Format: cell-based, mouse
Conditions: NMDA 40 micromolar in ACSF, 3 minutes, 30 min wash
Protocol: FIG. 6 is a representation of a Western blot which illustrates that the NMDA-dependent Glutamate receptor co-immunoprecipitates with an MHC Class I molecule; 400-micron-thick slices of adult mouse brain (wild type or b2m-/-TAP-/- [MHC class I-deficient]) were cut and allowed to recover in oxygenated (95% O2, 5% CO2) artifical cerebro-spinal fluid (ACSF) for 1 hour at room temperature; a subset of slices were then transferred to a recording chamber and allowed to recover for 40 min in flowing oxygenated ACSF (2 ml/minute); these slices were treated with NMDA (40 micromolar in ACSF, 3 minutes) and then washed for 30 min in oxygenated ACSF; at this time, all slices (treated and untreated) were homogenized as below and processed for immunoprecipitation with antibodies against b2m, IgG, or GluR1, and the resulting precipitates were probed in Western blots with antibodies against GluR1.
Hippocampal slice (400 um) samples were prepared by homogenizing tissue in NP40 Lysis buffer (50 mM Tris, 150 mM NaCl, 1 mM EDTA, 1% NP40, pH 7.6) with protease inhibitors (1 ug/mL aprotinin, 1 ug/mL leupeptin, 1 ug/mL pepstatin, 1 mM Na orthovanadate, 1 mM PMSF, phosphatase inhibitor cocktail sigma, 1:100). After letting the tissue sit on ice for 15 min., samples were centrifuged at 13,000 rpm, 4°, for 10 min. […]

SMILES: CN[C@H](CC(=O)O)C(=O)O [NMDA]
- co-immunoprecipitation of GluR1 with anti-b2m antibodies (MHC-deficient (b2m-/- TAP-/-; KO) adult mouse brain slices): fails to induce coimmunoprecipitation of GluR1
- co-immunoprecipitation of GluR1 with antibodies against the light chain of MHC class I (b2m) (WT adult mouse brain slices): co-precipitates GluR1 only after NMDA treatment
